Source: patent US9512128B2 (BAYER CROPSCIENCE AG, priority 2012, dated 2016)
Read-outs that look alike come from different tables or passages of the source.

Legend:
[1] = tested on: greenhouse red spider mite (Tetranychus urticae); assay: Tetranychus urticae spray test, OP-resistant (TETRUR); format: in vivo; conditions: after 6 days, bean leaf discs
Procedure: 4. Tetranychus urticae Spray Test, OP-Resistant (TETRUR)
• Solvents: 78.0 parts by weight of acetone • 1.5 part by weight of dimethylformamide • Emulsifier: 0.5 part by weight of alkylaryl polyglycol ether
To produce a suitable preparation of active compound, 1 part by weight of active compound is mixed with the stated amounts of solvents and emulsifier, and the concentrate is diluted with emulsifier-containing water to the desired concentration.
Discs of bean leaves (Phaseolus vulgaris) which are infested by all stages of the greenhouse red spider mite (Tetranychus urticae) are sprayed with an active compound preparation of the desired concentration.
After 6 days, the efficacy in % is determined. 100% means that all of the spider mites have been killed; 0% means that none of the spider mites have been killed.

[2] = tested on: southern root-knot nematode (Meloidogyne incognita); assay: Meloidogyne incognita test (MELGIN); format: in vivo; conditions: application rate 20 ppm, after 14 days, lettuce
Procedure: 5. Meloidogyne incognita Test (MELGIN) • Solvent: 125.0 parts by weight of acetone To prepare a suitable active compound preparation, 1 part by weight of active compound is mixed with the stated amount of solvent and the concentrate is diluted with water to the desired concentration. Vessels are filled with sand, active compound solution, an egg/larvae suspension of the southern root-knot nematode (Meloidogyne incognita) and lettuce seeds. The lettuce seeds germinate and the plants develop. On the roots, galls are formed. After 14 days, the nematicidal effect in % is determined by the formation of galls. 100% means that no galls have been found; 0% means that the number of galls on the treated plants corresponds to the untreated control.

[3] = log P by HPLC on reversed-phase columns (C 18), EEC directive 79/831 Annex V.A8; format: physicochemical; conditions: for logP[a]: method [a]; for logP[b]: method [b]; for chromatographic logP: reversed-phase C18 HPLC column
In short: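 Measured by reversed-phase C18 HPLC (LC-MS) with a linear 10→95% acetonitrile gradient. Acidic: pH 2.7, 0.1% formic acid. Neutral: pH 7.8, 0.001 M ammonium bicarbonate.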

SMILES: Cc1cc(F)c(-n2cnc3onc(C)c3c2=O)cc1[S+]([O-])CC(F)(F)F (centres unmarked) [Compound 196]
- efficacy in % (spider mites killed) ([1]; application rate 100 g/ha): 90%
- nematicidal effect in % (formation of galls) [2]: 100%

SMILES: Cc1ccc(-n2cnc3cnn(C)c3c2=O)cc1[S+]([O-])CC(F)(F)F (centres unmarked) [Compound 142]
- efficacy in % (spider mites killed) ([1]; application rate 500 g/ha): 100%
- nematicidal effect in % (formation of galls) [2]: 100%

SMILES: CCc1noc2ncn(-c3cc([S+]([O-])CC(F)(F)F)c(C)cc3F)c(=O)c12 (centres unmarked) [Compound 198]
- efficacy in % (spider mites killed) ([1]; application rate 500 g/ha): 90%
- nematicidal effect in % (formation of galls) [2]: 100%

SMILES: Cc1nn(C)c2ncn(-c3ccc(Cl)c([S+]([O-])CC(F)(F)F)c3)c(=O)c12 (centres unmarked) [Compound 37]
- logP[a] [3]: 2.01
- logP[b] [3]: 1.98
- efficacy in % (spider mites killed) ([1]; application rate 500 g/ha): 90%
- nematicidal effect in % (formation of galls) [2]: 80%

SMILES: Cc1cc(F)c(-n2c(C)nc3snc(C)c3c2=O)cc1[S+]([O-])CC(F)(F)F (centres unmarked) [Compound 210]
- efficacy in % (spider mites killed) ([1]; application rate 500 g/ha): 100%
- nematicidal effect in % (formation of galls) [2]: 100%

SMILES: Cc1cc(F)c(-n2cnc3onc(C(C)C)c3c2=O)cc1[S+]([O-])CC(F)(F)F (centres unmarked) [Compound 200]
- efficacy in % (spider mites killed) ([1]; application rate 500 g/ha): 100%
- nematicidal effect in % (formation of galls) [2]: 100%

SMILES: Cc1cc(F)c(-n2cnc3ncsc3c2=O)cc1SCC(F)(F)F [Compound 78]
- logP[a] [3]: 2.51
- logP[b] [3]: 2.48
- efficacy in % (spider mites killed) ([1]; application rate 500 g/ha): 90%
- nematicidal effect in % (formation of galls) [2]: 90%

SMILES: Cn1ncc2ncn(-c3cc(SCC(F)(F)F)c(Cl)cc3F)c(=O)c21 [Compound 148]
- efficacy in % (spider mites killed) ([1]; application rate 500 g/ha): 100%
- nematicidal effect in % (formation of galls) [2]: 100%

SMILES: Cc1cc(F)c(-n2cnc3onc(C)c3c2=O)cc1SCC(F)(F)F [Compound 194]
- efficacy in % (spider mites killed) ([1]; application rate 500 g/ha): 90%
- nematicidal effect in % (formation of galls) [2]: 100%

SMILES: CCn1ncc2ncn(-c3cc([S+]([O-])CC(F)(F)F)c(C)cc3F)c(=O)c21 (centres unmarked) [Compound 163]
- efficacy in % (spider mites killed) ([1]; application rate 500 g/ha): 100%
- nematicidal effect in % (formation of galls) [2]: 90%

SMILES: Cc1ccc(-n2cnc3sccc3c2=O)cc1[S+]([O-])CC(F)(F)F (centres unmarked) [Compound 86, 3-{4-Methyl-3-[(2,2,2-trifluoroethyl)sulphinyl]phenyl}thieno[2,3-d]pyrimidin-4(3H)-one]
- chromatographic logP ([3]; pH 2.7, acidic range, pH 2.7, 0.1% aqueous formic acid / acetonitrile, read-out: log P[a]): 1.94
- chromatographic logP ([3]; pH 2.7, method [a], read-out: logP[a]): 1.94
- chromatographic logP ([3]; pH 7.8, method [b], read-out: logP[b]): 1.93
- chromatographic logP ([3]; pH 7.8, neutral range, pH 7.8, 0.001 molar aqueous ammonium bicarbonate / acetonitrile, read-out: log P[b]): 1.93
- efficacy in % (spider mites killed) ([1]; application rate 500 g/ha): 90%
- nematicidal effect in % (formation of galls) [2]: 90%

SMILES: Cc1nc2cnn(C)c2c(=O)n1-c1cc([S+]([O-])CC(F)(F)F)c(Cl)cc1F (centres unmarked) [Compound 155]
- efficacy in % (spider mites killed) ([1]; application rate 500 g/ha): 90%
- nematicidal effect in % (formation of galls) [2]: 100%

SMILES: Cc1cc(Cl)c(-n2nnc3cnn(C)c3c2=O)cc1[S+]([O-])CC(F)(F)F (centres unmarked) [Compound 153]
- efficacy in % (spider mites killed) ([1]; application rate 500 g/ha): 90%
- nematicidal effect in % (formation of galls) [2]: 100%

SMILES: CCn1ncc2ncn(-c3cc(SCC(F)(F)F)c(C)cc3F)c(=O)c21 [Compound 159]
- efficacy in % (spider mites killed) ([1]; application rate 500 g/ha): 100%
- nematicidal effect in % (formation of galls) [2]: 100%

SMILES: Cc1ccc(-n2cnc3nn(C)c(C)c3c2=O)cc1[S+]([O-])CC(F)(F)F (centres unmarked) [Compound 47]
- logP[a] [3]: 1.54
- logP[b] [3]: 1.51
- efficacy in % (spider mites killed) ([1]; application rate 500 g/ha): 90%
- nematicidal effect in % (formation of galls) [2]: 80%

SMILES: CCn1ncc2nc(C)n(-c3cc([S+]([O-])CC(F)(F)F)c(C)cc3F)c(=O)c21 (centres unmarked) [Compound 164]
- efficacy in % (spider mites killed) ([1]; application rate 500 g/ha): 100%
- nematicidal effect in % (formation of galls) [2]: 100%

SMILES: Cc1cc(F)c(-n2cnc3cnn(CC4CC4)c3c2=O)cc1SCC(F)(F)F [Compound 167]
- efficacy in % (spider mites killed) ([1]; application rate 500 g/ha): 100%
- nematicidal effect in % (formation of galls) [2]: 100%

SMILES: Cc1cc(F)c(-n2c(C)nc3cnn(CC4CC4)c3c2=O)cc1[S+]([O-])CC(F)(F)F (centres unmarked) [Compound 170]
- efficacy in % (spider mites killed) ([1]; application rate 500 g/ha): 100%
- nematicidal effect in % (formation of galls) [2]: 100%

SMILES: Cc1nc2c(=O)n(-c3cc(SCC(F)(F)F)c(C)cc3C)cnc2s1 [Compound 72]
- logP[a] [3]: 2.92
- logP[b] [3]: 2.86
- efficacy in % (spider mites killed) ([1]; application rate 500 g/ha): 90%
- nematicidal effect in % (formation of galls) [2]: 90%

SMILES: Cc1nc2cnn(C)c2c(=O)n1-c1cc(SCC(F)(F)F)c(Cl)cc1F [Compound 149]
- efficacy in % (spider mites killed) ([1]; application rate 500 g/ha): 100%
- nematicidal effect in % (formation of galls) [2]: 100%

SMILES: Cc1cc(F)c(-n2cnc3cnn(CC4CC4)c3c2=O)cc1[S+]([O-])CC(F)(F)F (centres unmarked) [Compound 169]
- efficacy in % (spider mites killed) ([1]; application rate 500 g/ha): 100%
- nematicidal effect in % (formation of galls) [2]: 100%

SMILES: CCn1ncc2nc(C)n(-c3cc(SCC(F)(F)F)c(C)cc3F)c(=O)c21 [Compound 160]
- efficacy in % (spider mites killed) ([1]; application rate 500 g/ha): 100%
- nematicidal effect in % (formation of galls) [2]: 100%

SMILES: Cc1cc(F)c(-n2cnc3onc(C(F)(F)F)c3c2=O)cc1[S+]([O-])CC(F)(F)F (centres unmarked) [Compound 199]
- efficacy in % (spider mites killed) ([1]; application rate 500 g/ha): 90%
- nematicidal effect in % (formation of galls) [2]: 100%

SMILES: Cc1cc(Cl)c(-n2c(C)nc3cnn(C)c3c2=O)cc1[S+]([O-])CC(F)(F)F (centres unmarked) [Compound 157]
- efficacy in % (spider mites killed) ([1]; application rate 500 g/ha): 100%
- nematicidal effect in % (formation of galls) [2]: 90%

SMILES: Cc1cc(F)c(-n2cnc3snc(C)c3c2=O)cc1SCC(F)(F)F [Compound 202]
- efficacy in % (spider mites killed) ([1]; application rate 500 g/ha): 90%
- nematicidal effect in % (formation of galls) [2]: 90%

SMILES: Cc1cc(F)c(-n2cnc3c(C)nsc3c2=O)cc1[S+]([O-])CC(F)(F)F (centres unmarked) [Compound 181]
- efficacy in % (spider mites killed) ([1]; application rate 500 g/ha): 100%
- nematicidal effect in % (formation of galls) [2]: 90%

SMILES: CCc1nc2cnn(C)c2c(=O)n1-c1cc([S+]([O-])CC(F)(F)F)c(C)cc1F (centres unmarked) [Compound 147]
- efficacy in % (spider mites killed) ([1]; application rate 500 g/ha): 100%
- nematicidal effect in % (formation of galls) [2]: 100%

SMILES: Cc1cc(F)c(-n2c(C)nc3snc(C)c3c2=O)cc1SCC(F)(F)F [Compound 209]
- efficacy in % (spider mites killed) ([1]; application rate 500 g/ha): 90%
- nematicidal effect in % (formation of galls) [2]: 100%

SMILES: Cc1cc(F)c(-n2c(C)nc3ncsc3c2=O)cc1[S+]([O-])CC(F)(F)F (centres unmarked) [Compound 188]
- efficacy in % (spider mites killed) ([1]; application rate 500 g/ha): 100%
- nematicidal effect in % (formation of galls) [2]: 90%

SMILES: Cc1cc(F)c(-n2cnc3csnc3c2=O)cc1[S+]([O-])CC(F)(F)F (centres unmarked) [Compound 212]
- efficacy in % (spider mites killed) ([1]; application rate 500 g/ha): 90%
- nematicidal effect in % (formation of galls) [2]: 100%

SMILES: CCc1noc2ncn(-c3cc(SCC(F)(F)F)c(C)cc3F)c(=O)c12 [Compound 195]
- efficacy in % (spider mites killed) ([1]; application rate 500 g/ha): 90%
- nematicidal effect in % (formation of galls) [2]: 90%
